Experimental findings from EP0236307B1, “ANTIHYPERTENSIVE AGENTS, PHARMACEUTICAL COMPOSITIONS CONTAINING THEM AND PROCESSES FOR THE PREPARATION OF THE AGENTS AND COMPOSITIONS” (SCHERING CORPORATION, priority 1985, dated 1987) are described below.

The experiment deals with angiotensin converting enzyme. Kind of experiment: In-vivo ACE inhibitory activity: inhibition of the pressor response to i.v. angiotensin I in anesthetised rats. The following applies: for ID50 (i.v.): intravenous dose required to inhibit the pressor response to i.v. angiotensin I by 50% in anesthetised rats; for ID50 (oral): oral dose required to inhibit the pressor response to i.v. angiotensin I by 50% in anesthetised rats. An excerpt: As mentioned before the compounds of this invention show valuable antihypertensive activity. It can be concluded from animal tests that these compounds have high angiotensin converting enzyme inhibitory activity (ACE inhibitory activity). The in-vivo ACE inhibitory activity of Compound A: 1- [N-[1(S)-carboxy-3- [4-(4-chloro-3-sulfamoyl benzamido) phenyl] propyl](S)-alanyl]cis,syn-octahydroindole-2-(S)-carboxylic acid Compound B: 1-[N-[1(S)-carboxy-3-[4-(4-chloro-3-N-methyl-sulfamoyl benzamido)phenyl]propyl]-(S)-alanyl]cis, syn-octahydroindole-2(S)-carboxylic acid is as follows: […]

Take `C[C@H](N[C@@H](CCc1ccc(NC(=O)c2ccc(Cl)c(S(N)(=O)=O)c2)cc1)C(=O)O)C(=O)N1[C@H](C(=O)O)C[C@@H]2CCCC[C@@H]21` [Compound A, 1-[N-[1(S)-carboxy-3-[4-(4-chloro-3-sulfamoylbenzamido)phenyl]propyl](S)-alanyl]cis,syn-octahydroindole-2-(S)-carboxylic acid]: the “ID50 (i.v.)” value stood at 0.036 mg/kg and the “ID50 (oral)” value is given as 3 mg/kg.

In the case of `CNS(=O)(=O)c1cc(C(=O)Nc2ccc(CC[C@H](N[C@@H](C)C(=O)N3[C@H](C(=O)O)C[C@@H]4CCCC[C@@H]43)C(=O)O)cc2)ccc1Cl` [Compound B, 1-[N-[1(S)-carboxy-3-[4-(4-chloro-3-N-methyl-sulfamoylbenzamido)phenyl]propyl]-(S)-alanyl]cis, syn-octahydroindole-2(S)-carboxylic acid], the “ID50 (i.v.)” value worked out at 0.033 mg/kg and the “ID50 (oral)” value worked out at 3 mg/kg.
